US8802353B2, “Compound for resist and radiation-sensitive composition specification” (Mitsubishi Gas Chemical Company, Inc., priority 2004, dated 2014)

How the values were obtained:
Type in all cases: physicochemical
[1] = Glass transition temperature, crystallization temperature and quantity of crystallization heat (DSC); settings: for Glass transition temperature Rating / Glass transition temperature / Crystallization temperature: DSC; for Glass transition temperature: 20° C./min, nitrogen gas flow; for Glass transition temperature-Crystallization temperature: rating of the difference; for Crystallization temperature: exothermic peak
Experimental: A sample (about 10 mg) placed in a non-sealed aluminum container was heated to a temperature higher than the melting point at a temperature rising rate of 20° C./min in a nitrogen gas flow (50 ml/min). After being rapidly cooled, the sample was again heated to a temperature higher than the melting point at a temperature rising rate of 20° C./min in a nitrogen gas flow (30 ml/min). After being rapidly cooled, the sample was again heated to 400° C. at a temperature rising rate of 20° C./min in a nitrogen gas flow (30 ml/min), to conduct a differential scanning calorimetric analysis using DSC/TA-50WS manufactured by Shimadzu Corporation. The middle point of the region at which the base line turned discontinuous (the point at which the specific heat reduced to half) was taken as the glass transition temperature (Tg) and the temperature of the exothermic peak after the discontinuous region was taken as the crystallization temperature. The quantity of crystallization heat was determined by the area of the region which was surrounded by the exothermic peak and the base line. The sample was rated A when meeting Tg≧130° C., and rated C when meeting Tg≦130° C. Also, the sample was rated A when meeting (glass transition temperature)−(crystallization temperature)≧70° C., and rated C when meeting (glass transition temperature)-(crystallization temperature)<70° C.

[2] = Solubility in safety solvent; settings: 23° C.; PGMEA, PGME, ethyl lactate, butyl acetate, methyl 3-methoxypropionate, ethyl propionate
Experimental: The solubility of the compound B was tested at 23° C. using propylene glycol monomethyl ether acetate, propylene glycol monomethyl ether, ethyl lactate, butyl acetate, methyl 3-methoxypropionate and ethyl propionate. The sample was rated A when dissolved in any one of the above solvents in a concentration of 5 wt % or more, rated B when dissolved in a concentration of 0.1 to 5 wt %, and rated C when dissolved only in a concentration of less than 0.1 wt %.

[3] = Film-forming property (spin-coated film on silicon wafer); set-up: key: rated C when the film was clouded or its surface was roughened; rated B when the film was partly clouded or roughened; rated A when the film had a good surface flatness without causing clouding; settings: 3% by weight solution spin-coated, 110° C. 3 min
Excerpt: A 3% by weight solution of the compound B or a mixture (compound B and polyphenol A) in PGME/PE (1/2 by weight) or acetone when not dissolved in PGME/PE was spin-coated on a silicon wafer which had been surface-treated with a silane coupling agent, to form a resist film with a thickness of about 0.05 μm.

[4] = Adhesion to silicon substrate; set-up: key: rated A when the film was not peeled from the silicon wafer; rated C when peeled off; settings: silicon wafer surface-treated with silane coupling agent
Experimental: The resist film formed in (2-2) was tested for its adhesion to the silicon wafer which was surface-treated with a silane coupling agent. The sample was rated A when the film was not peeled from the silicon wafer, and rated C when peeled off.

| Glass transition temperature Rating [1] | Glass transition temperature [1] [°C] | film-forming property [3] | Adhesion to silicon substrate [4] | Compound | Glass transition temperature-Crystallization temperature [1] | Crystallization temperature [1] [°C] | Solubility to safety solvent [2] |
| --- | --- | --- | --- | --- | --- | --- | --- |
| A (rated A when meeting Tg≧130° C.) | 144 | – | – | Cc1cc(C(c2ccc3cc(C(c4cc(C)c(O)cc4C)c4cc(C)c(O)cc4C)ccc3c2)c2cc(C)c(O)cc2C)c(C)cc1O [Compound 101, tetrakis(2,5-xylenol)-2,6-naphthalenedialdehyde] | A (rated A when meeting (glass transition temperature)−(crystallization temperature)≧70° C.) | – | – |
| A (rated A when meeting Tg≧130° C.) | 145 | – | – | Cc1cc(C(c2ccc3ccc(C(c4cc(C)c(O)cc4C)c4cc(C)c(O)cc4C)cc3c2)c2cc(C)c(O)cc2C)c(C)cc1O [Compound 104] | A (rated A when meeting (glass transition temperature)−(crystallization temperature)≧70° C.) | 287 | – |
| A (rated A when meeting Tg≧130° C.) | 137 | – | – | Cc1cc(C(c2ccc(-c3cccc(-c4ccc(C(c5cc(C)c(O)cc5C)c5cc(C)c(O)cc5C)cc4)c3)cc2)c2cc(C)c(O)cc2C)c(C)cc1O [Compound 106] | A (rated A when meeting (glass transition temperature)−(crystallization temperature)≧70° C.) | – | – |
| A (rated A when meeting Tg≧130° C.) | 147 | – | – | Cc1cc(C(c2ccc(-c3ccc(-c4ccc(C(c5cc(C)c(O)cc5C)c5cc(C)c(O)cc5C)cc4)cc3)cc2)c2cc(C)c(O)cc2C)c(C)cc1O [Compound 107] | A (rated A when meeting (glass transition temperature)−(crystallization temperature)≧70° C.) | – | – |
| – | – | A | A | CCOC(C)Oc1cc(C)c(C(c2ccc3cc(C(c4cc(C)c(O)cc4C)c4cc(C)c(O)cc4C)ccc3c2)c2cc(C)c(O)cc2C)cc1C (stereo not shown) [Compound 109] | – | – | A (rated A when dissolved in any one of the above solvents in a concentration of 5 wt % or more) |
| – | – | A | A | Cc1cc(C(c2ccc3cc(C(c4cc(C)c(O)cc4C)c4cc(C)c(OC(C)OC5CCCCC5)cc4C)ccc3c2)c2cc(C)c(O)cc2C)c(C)cc1O (stereo not shown) [Compound 110] | – | – | A (rated A when dissolved in any one of the above solvents in a concentration of 5 wt % or more) |
| – | – | A | A | Cc1cc(C(c2ccc(-c3cccc(-c4ccc(C(c5cc(C)c(O)cc5C)c5cc(C)c(OC(C)OC6CCCCC6)cc5C)cc4)c3)cc2)c2cc(C)c(O)cc2C)c(C)cc1O (stereo not shown) [Compound 115] | – | – | A (rated A when dissolved in any one of the above solvents in a concentration of 5 wt % or more) |
| – | – | A | A | Cc1cc(C(c2ccc(-c3ccc(-c4ccc(C(c5cc(C)c(O)cc5C)c5cc(C)c(OC(C)OC6CCCCC6)cc5C)cc4)cc3)cc2)c2cc(C)c(O)cc2C)c(C)cc1O (stereo not shown) [Compound 116] | – | – | A (rated A when dissolved in any one of the above solvents in a concentration of 5 wt % or more) |
| – | – | A | A | Cc1cc(C(c2ccc3cc(C(c4cc(C)c(O)cc4C)c4cc(C)c(OC(C)OC5CCCCC5)cc4C)ccc3c2)c2cc(C)c(O)cc2C)c(C)cc1O (stereo not shown) [Compound 118] | – | – | A (rated A when dissolved in any one of the above solvents in a concentration of 5 wt % or more) |

Further lines, the molecule ahead of its results:

| Compound | Glass transition temperature Rating [1] | Glass transition temperature [1] [°C] | film-forming property [3] | Adhesion to silicon substrate [4] | Glass transition temperature-Crystallization temperature [1] | Crystallization temperature [1] [°C] | Solubility to safety solvent [2] |
| --- | --- | --- | --- | --- | --- | --- | --- |
| Cc1cc(C(c2ccc3cc(C(c4cc(C)c(O)c(C)c4C)c4cc(C)c(O)c(C)c4C)ccc3c2)c2cc(C)c(O)c(C)c2C)c(C)c(C)c1O [Compound 102] | A (rated A when meeting Tg≧130° C.) | 136 | – | – | A (rated A when meeting (glass transition temperature)−(crystallization temperature)≧70° C.) | – | – |
| CCOC(C)Oc1c(C)cc(C(c2ccc3cc(C(c4cc(C)c(O)c(C)c4C)c4cc(C)c(O)c(C)c4C)ccc3c2)c2cc(C)c(O)c(C)c2C)c(C)c1C (stereo not shown) [Compound 111] | – | – | A | A | – | – | A (rated A when dissolved in any one of the above solvents in a concentration of 5 wt % or more) |
| Cc1cc(C(c2ccc3cc(C(c4cc(C)c(O)c(C)c4C)c4cc(C)c(OC(C)OC5CCCCC5)c(C)c4C)ccc3c2)c2cc(C)c(O)c(C)c2C)c(C)c(C)c1O (stereo not shown) [Compound 112] | – | – | A | A | – | – | A (rated A when dissolved in any one of the above solvents in a concentration of 5 wt % or more) |
| Cc1cc(O)c(C(C)C)cc1C(c1ccc2cc(C(c3cc(C(C)C)c(O)cc3C)c3cc(C(C)C)c(OC(C)OC4CCCCC4)cc3C)ccc2c1)c1cc(C(C)C)c(O)cc1C (stereo not shown) [Compound 113] | – | – | A | A | – | – | A (rated A when dissolved in any one of the above solvents in a concentration of 5 wt % or more) |
| Cc1cc(C(c2ccc3ccc(C(c4cc(C)c(O)c(C)c4C)c4cc(C)c(OC(C)OC5CCCCC5)c(C)c4C)cc3c2)c2cc(C)c(O)c(C)c2C)c(C)c(C)c1O (stereo not shown) [Compound 114] | – | – | A | A | – | – | A (rated A when dissolved in any one of the above solvents in a concentration of 5 wt % or more) |
| Cc1cc(C(c2cc(C(c3cc(C)c(OC(=O)OC(C)(C)C)c(C)c3C)c3cc(C)c(OC(=O)OC(C)(C)C)c(C)c3C)cc(C(c3cc(C)c(OC(=O)OC(C)(C)C)c(C)c3C)c3cc(C)c(OC(=O)OC(C)(C)C)c(C)c3C)c2)c2cc(C)c(OC(=O)OC(C)(C)C)c(C)c2C)c(C)c(C)c1OC(=O)OC(C)(C)C [Compound 117] | – | – | A | A | – | – | A (rated A when dissolved in any one of the above solvents in a concentration of 5 wt % or more) |
| Cc1cc(C(c2cc(C(c3cc(C)c(O)c(C)c3C)c3cc(C)c(O)c(C)c3C)cc(C(c3cc(C)c(O)c(C)c3C)c3cc(C)c(OC(C)OC4CCCCC4)c(C)c3C)c2)c2cc(C)c(O)c(C)c2C)c(C)c(C)c1O (stereo not shown) [Compound 119] | – | – | A | A | – | – | A (rated A when dissolved in any one of the above solvents in a concentration of 5 wt % or more) |
| CC(C)(C)OC(=O)Oc1ccc(C(C)(C)c2ccc(OC(=O)OC(C)(C)C)cc2)cc1 [Compound 201, reference compound] | – | – | – | – | – | – | C (rated C when dissolved only in a concentration of less than 0.1 wt %) |
| CC(C)(C)OC(=O)Oc1ccc(C2(c3ccc(OC(=O)OC(C)(C)C)cc3)CCCCC2)cc1 [Compound 202, reference compound] | – | – | – | – | – | – | C (rated C when dissolved only in a concentration of less than 0.1 wt %) |
| CC(C)(C)OC(=O)Oc1ccc(C(c2ccc(OC(=O)OC(C)(C)C)cc2)c2ccc(OC(=O)OC(C)(C)C)cc2)cc1 [Compound 203, reference compound] | – | – | A | A | – | – | C (rated C when dissolved only in a concentration of less than 0.1 wt %) |
| CC(C)(C)OC(=O)Oc1ccc(-c2cc(-c3ccc(OC(=O)OC(C)(C)C)cc3)cc(-c3ccc(OC(=O)OC(C)(C)C)cc3)c2)cc1 [Compound 204, reference compound] | – | – | B | A | – | – | A (rated A when dissolved in any one of the above solvents in a concentration of 5 wt % or more) |
| Cc1cc(C(C)(c2ccc(O)c(C)c2)c2ccc3ccccc3c2)ccc1O [Compound 206, 1-(2-naphthyl)-1,1-bis(3-methyl-4-hydroxyphenyl)ethane, reference compound] | C (rated C when meeting Tg≦130° C.) | 72 | – | – | A (rated A when meeting (glass transition temperature)−(crystallization temperature)≧70° C.) | – | – |
| Oc1ccc(C2(c3ccc(O)cc3)c3ccccc3-c3ccccc32)cc1 [Compound 209, bisphenol fluorene, reference compound] | C (rated C when meeting Tg≦130° C.) | 101 | – | – | C (rated C when meeting (glass transition temperature)-(crystallization temperature)<70° C.) | 157.7 | – |
